# Source: US20210198277A1, “AMINE-SUBSTITUTED ARYL OR HETEROARYL COMPOUNDS” (Epizyme, Inc., priority 2016, published 2021)
# Molecular target: T1, EHMT1 (Homo sapiens, UniProt Q9H9B1)
# T1 sequence (Q9H9B1 1-1298): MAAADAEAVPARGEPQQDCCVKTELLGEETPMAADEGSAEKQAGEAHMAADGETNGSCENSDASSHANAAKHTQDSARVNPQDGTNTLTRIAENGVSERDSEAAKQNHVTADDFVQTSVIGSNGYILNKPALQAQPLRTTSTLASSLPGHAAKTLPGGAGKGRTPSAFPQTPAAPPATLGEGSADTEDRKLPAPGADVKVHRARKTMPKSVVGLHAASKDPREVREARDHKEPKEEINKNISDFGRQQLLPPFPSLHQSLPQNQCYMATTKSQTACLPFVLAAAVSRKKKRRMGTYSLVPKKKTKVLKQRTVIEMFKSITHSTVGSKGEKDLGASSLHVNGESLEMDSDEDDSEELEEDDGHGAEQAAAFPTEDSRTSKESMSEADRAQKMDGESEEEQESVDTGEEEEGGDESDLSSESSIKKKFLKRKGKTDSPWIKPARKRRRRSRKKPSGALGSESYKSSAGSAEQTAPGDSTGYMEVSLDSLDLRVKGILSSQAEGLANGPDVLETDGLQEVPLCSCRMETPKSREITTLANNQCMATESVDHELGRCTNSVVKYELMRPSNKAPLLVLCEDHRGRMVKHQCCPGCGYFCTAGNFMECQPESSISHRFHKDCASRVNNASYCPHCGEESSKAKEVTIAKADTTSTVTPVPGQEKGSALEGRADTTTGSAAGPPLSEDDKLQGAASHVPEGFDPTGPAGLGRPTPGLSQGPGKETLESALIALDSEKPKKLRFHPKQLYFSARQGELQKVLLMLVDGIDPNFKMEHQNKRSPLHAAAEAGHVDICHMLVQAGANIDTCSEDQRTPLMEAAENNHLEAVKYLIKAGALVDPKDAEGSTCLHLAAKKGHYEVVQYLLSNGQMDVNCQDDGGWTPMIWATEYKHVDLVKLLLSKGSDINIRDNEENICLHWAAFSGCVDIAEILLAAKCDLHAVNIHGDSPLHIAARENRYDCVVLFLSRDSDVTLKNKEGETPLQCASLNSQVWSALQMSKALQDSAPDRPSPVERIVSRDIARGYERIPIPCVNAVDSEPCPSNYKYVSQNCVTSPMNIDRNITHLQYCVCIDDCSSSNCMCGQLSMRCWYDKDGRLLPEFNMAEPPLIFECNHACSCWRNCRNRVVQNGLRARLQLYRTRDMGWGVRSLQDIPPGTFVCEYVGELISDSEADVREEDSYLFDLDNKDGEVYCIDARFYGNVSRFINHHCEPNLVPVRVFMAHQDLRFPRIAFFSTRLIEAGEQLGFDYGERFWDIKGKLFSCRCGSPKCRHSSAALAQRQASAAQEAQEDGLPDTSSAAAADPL
# Experiment: EHMT1 enzyme assay on peptide substrate (EHMT1 PEP)
# Assay type: biochemical
# Settings: Table III; read-out: EHMT1 PEP (IC50 μM)
row,IC50 [µM],SMILES
1,0.1 to 1,COc1ccc(Nc2nccc(NCC(F)(F)F)n2)cc1OCCCN1CCCC1 [Compound 392]
2,< 0.1,CNc1ccnc(Nc2ccc(OC)c(OCC3CCN(C)C3)c2)n1 (stereo not shown) [Compound 393]
3,> 10,CCNC(=O)c1cccc(Nc2nccc(NC)n2)c1 [Compound 394]
4,> 10,CCNC(=O)c1cc(Nc2nccc(NC)n2)ccc1OC [Compound 395]
5,1 to 10,CCNC(=O)c1cc(Nc2nccc(NC)n2)ccc1Cl [Compound 396]
6,> 10,CNc1ccnc(Nc2cccc(N3CCC(N(C)C)C3)c2)n1 (stereo not shown) [Compound 397]
7,0.1 to 1,CNc1ccnc(Nc2ccc(Cl)c(OCCCN3CCCC3)c2)n1 [Compound 398]
8,> 10,CNc1ccnc(Nc2cccc(N3CCC(N)C3)c2)n1 (stereo not shown) [Compound 400]
9,> 10,COc1ccc(Nc2ccc3cn(C)nc3n2)cc1OCCCN1CCCC1 [Compound 402]
10,> 10,"CNc1ccnc(Nc2ccc3cn(CCN(C)C)nc3c2)n1 [Compound 404, N^2-(2-(2-(dimethylamino)ethyl)-2H-indazol-6-yl)-N^4-methylpyrimidine-2,4-diamine]"
11,> 10,CNc1ccnc(Nc2ccc3cn(CCCN(C)C)nc3c2)n1 [Compound 405]
12,0.1 to 1,"CNc1ccnc(Nc2ccc(OC)c(COC3CCN(C)C3)c2)n1 (stereo not shown) [Compound 407, N^2-(4-methoxy-3-(((1-methylpyrrolidin-3-yl)oxy)methyl)phenyl)-N^4-methylpyrimidine-2,4-diamine]"
13,0.1 to 1,"CCN1CCC(COc2cc(Nc3nccc(NC)n3)ccc2OC)C1 (stereo not shown) [Compound 408, N^2-(3-((1-ethylpyrrolidin-3-yl)methoxy)-4-methoxyphenyl)-N^4-methylpyrimidine-2,4-diamine]"
14,< 0.1,"CNc1ccnc(Nc2ccc(OC)c(OCC3CCN(C(C)C)C3)c2)n1 (stereo not shown) [Compound 409, N^2-(3-((1-isopropylpyrrolidin-3-yl)methoxy)-4-methoxyphenyl)-N^4-methylpyrimidine-2,4-diamine]"
15,1 to 10,"CNc1ccnc(Nc2ccc(OC)c(OCC3CCN(CCOC)C3)c2)n1 (stereo not shown) [Compound 410, N^2-(4-methoxy-3-((1-(2-methoxyethyl)pyrrolidin-3-yl)methoxy)phenyl)-N^4-methylpyrimidine-2,4-diamine]"
16,< 0.1,"CNc1ccnc(Nc2ccc(OC)c(OCC3CCN(C4CC4)C3)c2)n1 (stereo not shown) [Compound 411, N^2-(3-((1-cyclopropylpyrrolidin-3-yl)methoxy)-4-methoxyphenyl)-N^4-methylpyrimidine-2,4-diamine]"
17,0.1 to 1,"CNc1ccnc(Nc2ccc(OC)c(OCC3CCCN(C)C3)c2)n1 (stereo not shown) [Compound 412, N^2-(4-methoxy-3-((1-methylpiperidin-3-yl)methoxy)phenyl)-N^4-methylpyrimidine-2,4-diamine]"
18,0.1 to 1,"CNc1cc(C)nc(Nc2ccc(OC)c(OCC3CCCN(C)C3)c2)n1 (stereo not shown) [Compound 413, N^2-(4-methoxy-3-((1-methylpiperidin-3-yl)methoxy)phenyl)-N^4,6-dimethylpyrimidine-2,4-diamine]"
19,< 0.1,"CNc1ccnc(Nc2ccc(OC)c(OCCCN3CC(O)C3)c2)n1 [Compound 414, 1-(3-(2-methoxy-5-((4-(methylamino)pyrimidin-2-yl)amino)phenoxy)propyl)azetidin-3-ol]"
20,0.1 to 1,"CCCN1CCC(COc2cc(Nc3nccc(NC)n3)ccc2OC)C1 (stereo not shown) [Compound 420, N^2-(4-methoxy-3-((1-propylpyrrolidin-3-yl)methoxy)phenyl)-N^4-methylpyrimidine-2,4-diamine]"
21,0.1 to 1,"CNc1cc(C)nc(Nc2ccc(OC)c(COC3CCN(C)C3)c2)n1 (stereo not shown) [Compound 421, N^2-(4-methoxy-3-(((1-methylpyrrolidin-3-yl)oxy)methyl)phenyl)-N^4,6-dimethylpyrimidine-2,4-diamine]"
22,0.1 to 1,"CNc1ccnc(Nc2ccc(OC)c(OCC3CCN(CC4CC4)C3)c2)n1 (stereo not shown) [Compound 422, N^2-(3-((1-(cyclopropylmethyl)pyrrolidin-3-yl)methoxy)-4-methoxyphenyl)-N^4-methylpyrimidine-2,4-diamine]"
